Holding throughout (assay): relative viability (nuclei count vs DMSO), 5 days (fraction); higher = more cells survive
Compound in the assay “Shikonin + Alpelisib”: CC(C)=CC[C@@H](O)C1=CC(=O)c2c(O)ccc(O)c2C1=O [Shikonin] + Cc1nc(NC(=O)N2CCC[C@H]2C(N)=O)sc1-c1ccnc(C(C)(C)C(F)(F)F)c1 [Alpelisib] (partner 2 µM)
Summed up:
(§1)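 Relative viability is defined as nuclei in treated wells over nuclei in vehicle wells. Duplicate plates were run and medians reported. Lung cancer cell lines in 1536-well plates were dosed by pin tool one day after seeding, with one drug or with a fixed anchor-drug dose plus five library-drug doses (not always all listed) in √10 steps, and nuclei were counted after 5 days.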

Compound in assay [1]: CC(C)N(CCCNC(=O)Nc1ccc(C(C)(C)C)cc1)C[C@H]1O[C@@H](n2ccc3c(N)ncnc32)[C@H](O)[C@@H]1O + CS(=O)(=O)CCNCc1ccc(-c2ccc3ncnc(Nc4ccc(OCc5cccc(F)c5)c(Cl)c4)c3c2)o1 [Lapatinib] (partner 2 µM)
Summed up: as §1

Compound in assay [2]: CC(C)N(CCCNC(=O)Nc1ccc(C(C)(C)C)cc1)C[C@H]1O[C@@H](n2ccc3c(N)ncnc32)[C@H](O)[C@@H]1O + Cc1nc(NC(=O)N2CCC[C@H]2C(N)=O)sc1-c1ccnc(C(C)(C)C(F)(F)F)c1 [Alpelisib] (partner 2 µM)
Summed up:
as §1

Compound in the assay “Shikonin + Decitabine”: CC(C)=CC[C@@H](O)C1=CC(=O)c2c(O)ccc(O)c2C1=O [Shikonin] + Nc1ncn([C@H]2C[C@H](O)[C@@H](CO)O2)c(=O)n1 [Decitabine] (partner 2 µM)
In a few lines:
as §1

For one cell line, relative viability results are on record in the supplement of paper PMC10307832.

SW 1573: the relative viability in the assay with Shikonin + Alpelisib (first compound 0.01 µM) stood at 0.816; with Shikonin + Alpelisib (first compound 0.1 µM), 0.888; with Shikonin + Alpelisib (first compound 0.3162 µM) it was 0.801; with Shikonin + Alpelisib (first compound 1 µM) it was 0.657; in assay [1] (first compound 0.08 µM) it was 1.05; in assay [1] (first compound 0.253 µM), 1.09. Further, the relative viability in assay [1] (first compound 0.8 µM) came to 1.09; in assay [1] (first compound 2.53 µM) it was 1.05; in assay [1] (first compound 8 µM), 1.16; in assay [2] (first compound 0.08 µM) it was 0.771; in assay [2] (first compound 0.253 µM) it was 0.708; in assay [2] (first compound 0.8 µM), 0.734. Moreover, the relative viability in assay [2] (first compound 2.53 µM) stood at 0.949; in assay [2] (first compound 8 µM) it was 0.667; in the assay with Shikonin + Decitabine (first compound 0.01 µM) it was 0.446; with Shikonin + Decitabine (first compound 0.1 µM), 0.686; with Shikonin + Decitabine (first compound 0.3162 µM), 0.261; in the assay with Shikonin + Decitabine (first compound 1 µM) it was 0.135.
